Common to all, as to assay type: functional
The test system of test [1] is Popillia japonica. Nature of the test: Insecticidal activity against Popillia japonica assessed as mortality after 20 days.
In test [2] the test system is Amphimallon majale. The test can be described thus: Insecticidal activity against Amphimallon majalis (European chafer) assessed as mortality after 10 days.
For test [3], the system named is Popillia japonica. Nature of the test: Insecticidal activity against Popillia japonica assessed as mortality after 10 days.
In test [4] the test system is Popillia japonica. The test can be described thus: Insecticidal activity against Popillia japonica assessed as mortality after 30 days.
Test [5] deals with Amphimallon majale. The test can be described thus: Insecticidal activity against Amphimallon majalis (European chafer) assessed as mortality after 30 days.
Test [6] has as its system Amphimallon majale. Nature of the test: Insecticidal activity against Amphimallon majalis (European chafer) assessed as mortality after 20 days.
Test [7] concerns Anomala orientalis. Nature of the test: Insecticidal activity against Anomala orientalis assessed as mortality after 20 days. Further details: concentration or dose not given beside the values.
For test [8], the system named is Maladera castanea. The test can be described thus: Insecticidal activity against Maladera castanea assessed as mortality after 30 days. More on the design: concentration or dose not given beside the values.
Test [9] deals with Anomala orientalis. Nature of the test: Insecticidal activity against Anomala orientalis assessed as mortality after 30 days. Further details: concentration or dose not given beside the values.
Test [10] concerns Anomala orientalis. Nature of the test: Insecticidal activity against Anomala orientalis assessed as mortality after 10 days. More on the design: concentration or dose not given beside the values.
Test [11] deals with Maladera castanea. Nature of the test: Insecticidal activity against Maladera castanea assessed as mortality after 20 days. Further details: concentration or dose not given beside the values.
Test [12] has as its system Maladera castanea. The test can be described thus: Insecticidal activity against Maladera castanea assessed as mortality after 10 days. Further details: concentration or dose not given beside the values.

In the case of `C/C=C(\C)C(=O)O[C@H]1C[C@@H](OC(C)=O)[C@@]2(C(=O)OC)CO[C@H]3[C@@H](O)[C@@](C)([C@]45O[C@@]4(C)[C@@H]4C[C@H]5O[C@@H]5OC=C[C@@]54O)[C@H]4[C@]1(CO[C@]4(O)C(=O)OC)[C@@H]32` [AZADIRACHTIN A], the Activity in [1] is recorded as 64.1%; in test [2], 4%; in test [3], 74.3%; in [4] it was 87.2%; in [5], 15.8%; in [6] it was 1.1%.
On to `CN1COCN(Cc2cnc(Cl)s2)/C1=N\[N+](=O)[O-]` [THIAMETHOXAM], for which the Activity in test [7] is 57.5%; in [1] it was 74.9%; in test [2], 13.1%; in test [8], 72.8%; in test [3] it was 48.1%; in test [9], 78.7%. The Activity in [10] is recorded as 27%; in test [4] it was 91%; in [5] it was 35.1%; in test [11], 39.1%; in test [6], 16.4%; in test [12] it was 28.2%.
Turning to `COP(=O)(OC)C(O)C(Cl)(Cl)Cl` (stereo not given) [TRICHLORFON], the Activity turned out to be 95.1% in test [7]; 92.6% in test [1]; 6% in test [2]; 100% in test [8]; 71.3% in test [3]; 96% in test [9]. Further, the Activity is 95.6% in test [10]; 94.8% in test [4]; 7.4% in test [5]; 97.7% in test [11]; 2.6% in [6]; 70.3% in test [12].
`CCOP(=S)(OCC)Oc1nc(Cl)c(Cl)cc1Cl` [CHLORPYRIFOS]: the Activity in test [7] is on record as 94.8%; in test [1], 84.4%; in test [2], 43%; in [8], 92.4%; in test [3], 62.7%; in test [9], 98.6%. Also, the Activity is 87.9% in test [10]; 100% in test [4]; 100% in test [5]; 89.6% in test [11]; 89% in test [6]; 65.5% in [12].
Regarding `CN/C(=N\[N+](=O)[O-])NCc1cnc(Cl)s1` [CLOTHIANIDINE], the Activity in test [7] worked out at 89.3%; in [1], 22.9%; in test [2], 19.8%; in [8], 100%; in test [3] it was 4%; in [9], 98.6%. Besides, the Activity in test [10] worked out at 56%; in test [4], 32.8%; in [5], 44.3%; in test [11], 75.7%; in test [6] it was 22.6%; in test [12] it was 39.8%.
As to `CN/C(=N/CC1CCOC1)N[N+](=O)[O-]` (stereo not given) [DINOTEFURAN], the Activity in test [1] was 69.3%; in [2], 0%; in test [3], 54.4%; in test [4] it was 86.2%; in test [5] it was 8.9%; in test [6] it was 2.2%.
For `CC[C@H]1CCC[C@H](O[C@H]2CC[C@H](N(C)C)[C@@H](C)O2)[C@@H](C)C(=O)C2=C[C@@H]3[C@@H](C=C(C)[C@@H]4C[C@@H](O[C@@H]5O[C@@H](C)[C@H](OC)[C@@H](OC)[C@H]5OC)C[C@@H]34)[C@@H]2CC(=O)O1.CC[C@H]1CCC[C@H](O[C@H]2CC[C@H](N(C)C)[C@@H](C)O2)[C@@H](C)C(=O)C2=C[C@@H]3[C@@H](C=C[C@@H]4C[C@@H](O[C@@H]5O[C@@H](C)[C@H](OC)[C@@H](OC)[C@H]5OC)C[C@@H]34)[C@@H]2CC(=O)O1`, the Activity in [7] came out at 31.4%; in test [1], 33.5%; in test [2], 17.1%; in test [8], 79.6%; in test [3], 7.3%; in test [9] it was 59%. For the same compound, the Activity came out at 3.2% in test [10]; 58.9% in test [4]; 26.5% in test [5]; 20.6% in test [11]; 11.8% in [6]; 6.6% in [12].
On to `Cc1c(COC(=O)[C@@H]2[C@H](/C=C(\Cl)C(F)(F)F)C2(C)C)cccc1-c1ccccc1` [BIFENTHRIN], for which the Activity is on record as 59.3% in test [1]; 0% in [2]; 36.9% in [3]; 86.7% in [4]; 0% in [5]; 0% in test [6].
As to `O=[N+]([O-])/N=C1\NCCN1Cc1ccc(Cl)nc1` [IMIDACLOPRID], the Activity amounted to 30.1% in test [7]; 22.6% in test [1]; 13% in test [2]; 38.8% in test [8]; 9.1% in [3]; 68.3% in test [9]. The Activity was determined as 9.7% in [10]; 41.7% in test [4]; 34.2% in test [5]; 12.2% in test [11]; 18.3% in [6]; 9.2% in [12].

The values above are taken from ChEMBL document CHEMBL3046400, “Variation in the laboratory susceptibility of turf-infesting white grubs (Coleoptera: Scarabaeidae) to biological, biorational and chemical control products” (2010).
